Data: patent US10047091B2, “Ionic liquid, lubricating agent, and magnetic recording medium” (Dexerials Corporation, priority 2012, dated 2018)
Like-named read-outs stand apart in the source and are kept apart here.

Legend:
[1] = acid dissociation constant (pKa) in water
Text: As used herein, pKa refers to an acid dissociation constant, i.e., an acid dissociation constant in water or an acid dissociation constant in acetonitrile.
The acid dissociation constant in water can be measured, for example, with reference to the method described in J. Chem. Res., Synop. […] Specifically, it can be measured by a combination of a spectrometer with potentiometry.

TG/DTA thermal analysis = assay type: physicochemical; conditions: for 10% weight loss temperature: TG; for 10% weight loss temperature / Exothermic peak temperature in DTA measurement: air, 30° C. to 600° C., heating rate 10° C./min; for nature of the weight loss in TG/DTA: exothermic suggests decomposition reaction
Procedure: The measurement is performed in a temperature range of 30° C. to 600° C. at a heating rate of 10° C./min while introducing air at a flow rate of 200 mL/min using EXSTAR 6000 (manufactured by Seiko Instruments Inc.). As a gas chromatography mass spectrometer, 6890/5975 MSD (manufactured by Agilent Technologies, Inc.) was used. The following measurement conditions are used: column: DB-1 (15 m, diameter: 0.25 mm, membrane thickness: 0.1 μm); injection temperature: 280° C.; column temperature: initial temperature of 40° C., hold for 5 min, heated to 340° C. at the heating rate of 20° C./min, and hold at the same temperature; mass spectrometric unit: 5975MSD; MS detection mode: EI^+; quadrupole temperature: 150° C.; ion source temperature: 300° C.; mass scanning range: m/z 33-700; and calibration: PFTBA.
Ionic liquids obtained from Examples 2, 28, and 29 and Comparative Examples 16 and 17 were subjected to a TG measurement using EXSTAR 6000 (Seiko Instruments Inc.) (Examples 30 and 31, and Comparative Examples 18 and 19). Z-DOL was also subjected to the TG measurement (Comparative Example 20). Weight loss was measured while purging air in a temperature range of 30° C. to 600° C. at a heating rate of 10° C./min.
The TG/DTA measurement was performed in a temperature range of 30° C. to 600° C. at a heating rate of 10° C./min while introducing air at a flow rate of 200 mL/min using EXSTAR 6000 (manufactured by Seiko Instruments Inc.). As a gas chromatography mass spectrometer, 6890/5975 MSD (manufactured by Agilent Technologies, Inc.) was used. The following measurement conditions were used: column: DB-1 (15 m, diameter: 0.25 mm, membrane thickness: 0.1 μm); injection temperature: 280° C.; column temperature: initial temperature of 40° C., hold for 5 min, heated to 340° C. at the heating rate of 20° C./min, and hold at the same temperature; mass spectrometric unit: 5975MSD; MS detection mode: EI^+; quadrupole temperature: 150° C.; ion source temperature: 300° C.; mass scanning range: m/z 33-700; and calibration: PFTBA.

[2] = acid dissociation constant (pKa) in acetonitrile; assay type: physicochemical
Text: […]. Note that, the pKa values in acetonitrile is described in, for example, Blackwell Scientific Publications, Oxford, 1990, and J. Org. Chem. 2011, Vol. 76, pp. 391-395.
Although the acid dissociation constant in acetonitrile is not described herein because it is described in J. Org. Chem. 1998, 63, p. 7868 or J. Org. Chem. 1997, 62, p. 8479, it can be obtained by dissolving an acid in acetonitrile, titrating the resultant with a base, and measuring a spectrum by means of a UV-vis spectrometer.

[3] = cited from earlier work

| SMILES | pKa of Bronsted acid ([1]; in water) | 10% weight loss temperature (TG/DTA thermal analysis) | ΔpKa [2] | nature of the weight loss in TG/DTA (TG/DTA thermal analysis) | further results |
| --- | --- | --- | --- | --- | --- |
| CCCCCCCCCCCCCCCCCC(=O)O.CCCCCCCCCCCCCCCCCCN [Comparative ionic liquid 3, reference compound] | 5.0 | – | – | – | – |
| CCCCCCCCCCCCCCCCCCN.O=C(O)C(F)(F)C(F)(F)C(F)(F)C(F)(F)C(F)(F)C(F)(F)C(F)(F)F [Comparative ionic liquid 6, reference compound] | – | 205 °C | – | – | pKa of Bronsted base ([1]; in water): 10.7; pKa of Bronsted acid ([1]; in water, listed as Comparative Example 16): 3.8 |
| CCCCCCCCCCCCCCCCCCN [octadecylamine] | – | – | – | – | pKa ([1]; water): 10.7 |
| CCCCCCCCCCCCCCCCCCN.O=S(=O)(O)O [Ionic liquid 3] | −3 | – | – | – | – |
| CCCCCCCCCCCCCCCCCCN.O=C(O)C(F)(F)F [Comparative ionic liquid 1, reference compound] | 0.5 | – | – | – | – |
| CCCCCCCCCCCCCCCCCCN1CCCN2CCCN=C12.O=S1(=O)NS(=O)(=O)C(F)(F)C(F)(F)C1(F)F [Ionic liquid 18, C18-TBD cyclo-hexafluoropropane-1,3-bis(sulfonyl)imide salt] | – | 380 °C | 26.4 | exothermic | – |
| CCCCCCCCCCCCCCCCCCN.CS(=O)(=O)O [Ionic liquid 4] | −2 | – | – | – | – |
| O=C(O)C(F)(F)C(F)(F)C(F)(F)C(F)(F)C(F)(F)C(F)(F)C(F)(F)F [perfluorooctanoic acid] | – | – | – | – | pKa [1]: 2.5 |
| CCCCCCCCCCCCCCCCCCN.O=S(=O)(NS(=O)(=O)C(F)(F)F)C(F)(F)F [Ionic liquid 1, n-octadecylamine-bistrifluoromethane sulfonylimide salt] | – | 329 °C | 17.9 | exothermic | – |
| CCCCCCCCCCCCCCCCCCN.O=C(O)C(F)(F)C(F)(F)C(F)(F)C(F)(F)C(F)(F)C(F)(F)C(F)(F)F [Comparative ionic liquid 2, reference compound] | – | – | – | – | pKa of Bronsted acid [1]: 2.5 |
| CCCCCCCCCCCCCCCCCCN1CCCN2CCCN=C12.O=S(=O)(O)C(F)(F)C(F)(F)C(F)(F)C(F)(F)C(F)(F)C(F)(F)C(F)(F)C(F)(F)F [Ionic liquid 17, 7-n-octadecyl-1,5,7-triazabicyclo[4.4.0]-5-decene (C18-TBD) pentadecafluorooctane sulfonic acid salt] | – | 381 °C | 24.8 | exothermic | – |
| CCCCCCCCCCCCCCCCCC(=O)O [stearic acid] | – | – | – | – | pKa ([1]; water): 5 |
| CCCCCCCCCCCCCCCCCCC1CCCCN2CCCN=C12.O=S(=O)(O)C(F)(F)C(F)(F)C(F)(F)C(F)(F)C(F)(F)C(F)(F)C(F)(F)C(F)(F)F (stereo not drawn) [Ionic liquid 15, 6-n-octadecyl-1,8-diazabicyclo[5.4.0]-7-undecene (C18-DBU) pentadecafluorooctane sulfonic acid salt] | – | 384 °C | 23.6 | exothermic | – |
| CCCCCCCCCCCCCCCCCCN.O=S(=O)(NS(=O)(=O)C(F)(F)C(F)(F)C(F)(F)C(F)(F)F)C(F)(F)C(F)(F)C(F)(F)C(F)(F)F [Ionic liquid 13, n-octadecylamine-bisnonafluorobutane sulfonylimide salt] | – | 331 °C | 18.3 | exothermic | – |
| C1CCC2=NCCCN2CC1 [DBU, 1,8-diazabicyclo(5,4,0)-undecene-7] | – | – | – | – | pKa value ([3]; in water, cyclic amidine base): 12.5 |
| CCCCCCCCCCCCCCCCCCN.O=S1(=O)NS(=O)(=O)C(F)(F)C(F)(F)C1(F)F [Ionic liquid 14, n-octadecylamine-cyclo-hexafluoropropane-1,3-bis(sulfonyl)imide salt] | – | 347 °C | 19.2 | exothermic | Exothermic peak temperature in DTA measurement (TG/DTA thermal analysis): 417 °C |
| C1CN=C2NCCCN2C1.O=S(=O)(O)C(F)(F)C(F)(F)C(F)(F)C(F)(F)C(F)(F)C(F)(F)C(F)(F)F [Comparative ionic liquid 9, TBD pentadecafluoro sulfonic acid salt, reference compound] | – | 371 °C | 24.8 | exothermic | Exothermic peak temperature in DTA measurement (TG/DTA thermal analysis): 425 °C |
| CCCCCCCCCCCCCCCC1CCCCN2CCCN=C12.O=S(=O)(O)C(F)(F)C(F)(F)C(F)(F)C(F)(F)C(F)(F)C(F)(F)C(F)(F)C(F)(F)F [Ionic liquid 11] | −3.3 | 372 °C | – | – | pKa of Bronsted base ([1]; in water): 12.5; increase of 10% weight loss temperature (TG/DTA thermal analysis; DBU derivative instead of stearylamine as Bronsted base): 45 °C; 10% weight loss temperature higher than that of Z-DOL (TG/DTA thermal analysis; difference to Z-DOL): ≥ 200 °C |
| CCCCCCCCCCCCCCCCCCC1CCCCN2CCCN=C12.O=S1(=O)NS(=O)(=O)C(F)(F)C(F)(F)C1(F)F (stereo not drawn) [Ionic liquid 16, C18-DBU cyclo-hexafluoropropane-1,3-bis(sulfonyl)imide salt] | – | 386 °C | 25.2 | exothermic | Exothermic peak temperature in DTA measurement (TG/DTA thermal analysis): 474 °C |
| CCCCCCCCCCCCCCCCCCN.O=S(=O)(O)C(F)(F)C(F)(F)C(F)(F)C(F)(F)C(F)(F)C(F)(F)C(F)(F)C(F)(F)F [Ionic liquid 10] | −3.3 | 327 °C | – | – | pKa of Bronsted base ([1]; in water): 10.7 |
| CCCCCCCCCCCCCCCCCCN.OCC(F)(F)C(F)(F)C(F)(F)C(F)(F)C(F)(F)C(F)(F)C(F)(F)F [Comparative ionic liquid 7, reference compound] | 7-9 | 62 °C | – | – | pKa of Bronsted base ([1]; in water): 10.7; ΔpKa (pKa value of Bronsted base minus pKa value of Bronsted acid) ([1]; in water): ≤ 4; ΔpKa (pKa value of Bronsted base minus pKa value of Bronsted acid) ([1]; in water, listed as Comparative Example 17): 1.7-3.7 |
| c1c[nH]cn1 [imidazole] | – | – | – | – | pKa value ([3]; solvent not stated): 14 |
| C1CCC2=NCCCN2CC1.O=S(=O)(O)C(F)(F)C(F)(F)C(F)(F)C(F)(F)C(F)(F)C(F)(F)C(F)(F)C(F)(F)F [Comparative ionic liquid 8, DBU pentadecafluorooctane sulfonic acid salt, reference compound] | – | 393 °C | 23.6 | exothermic | Exothermic peak temperature in DTA measurement (TG/DTA thermal analysis): 432 °C |
